ChEMBL document CHEMBL1126791, “Synthesis and antibacterial activity of a new series of tetracyclic pyridone carboxylic acids” (J Med Chem, 1993)
Converted amounts (≈) assume the structure as drawn.

Experiments:
Staphylococcus aureus [1] = assay: Oral antibacterial activity against Staphylococcus aureus IID 803 in mice (95% confidence limits); type: functional
Enterococcus faecalis = assay: In vitro minimum inhibitory concentration against E. Faecalis IID682; type: functional
Pseudomonas aeruginosa [2] = assay: In vitro minimum inhibitory concentration against Pseudomonas aeruginosa IFO 3445; type: functional
Escherichia coli [3] = assay: In vitro minimum inhibitory concentration against Escherichia coli NIHJ JC-2; type: functional
Staphylococcus aureus [4] = assay: In vitro minimum inhibitory concentration against Staphylococcus aureus FDA 209P JC-1; type: functional
Klebsiella pneumoniae = assay: In vitro minimum inhibitory concentration against Klebsiella pneumoniae B54; type: functional
Salmonella typhimurium = assay: In vitro minimum inhibitory concentration against Salmonella Typhimurium IID 971; type: functional, Salmonella enterica subsp. enterica serovar Typhimurium; conditions: Salmonella enterica
Pseudomonas aeruginosa [5] = assay: Oral antibacterial activity against Pseudomonas aeruginosa E-2 in mice; type: functional
Staphylococcus aureus [6] = assay: In vitro minimum inhibitory concentration against Staphylococcus aureus IID 803; type: functional
Escherichia coli [7] = assay: In vitro minimum inhibitory concentration against Escherichia coli KC-14; type: functional
Escherichia coli [8] = assay: Oral antibacterial activity against Escherichia coli KC-14 in mice; type: functional
Escherichia coli [9] = assay: In vitro minimum inhibitory concentration against Escherichia coli KL-16; type: functional
[10] = system: Staphylococcus epidermidis; assay: In vitro minimum inhibitory concentration against Staphylococcus epidermidis IAM 1296; type: functional
Escherichia coli [11] = assay: Inhibitory effect on DNA gyrase supercoiling activity against Escherichia coli KL-16; type: functional
Pseudomonas aeruginosa [12] = assay: In vitro minimum inhibitory concentration against Pseudomonas aeruginosa E-2; type: functional

MIC (Enterococcus faecalis) [µg/mL] | MIC (Pseudomonas aeruginosa [2]) [µg/mL] | MIC (Escherichia coli [3]) [µg/mL] | MIC (Staphylococcus aureus [4]) [µg/mL] | MIC (Klebsiella pneumoniae) [µg/mL] | MIC (Salmonella typhimurium) [µg/mL] | MIC (Staphylococcus aureus [6]) [µg/mL] | MIC (Escherichia coli [7]) [µg/mL] | MIC (Escherichia coli [9]) [µg/mL] | MIC [10] [µg/mL] | IC50 (Escherichia coli [11]) [µg/mL] | MIC (Pseudomonas aeruginosa [12]) [µg/mL] | Structure (SMILES) | ED50 (Staphylococcus aureus [1]) [mg/kg] | ED50 (Pseudomonas aeruginosa [5]) [mg/kg] | ED50 (Escherichia coli [8]) [mg/kg]
0.1 (≈ 0.248 µM) | 0.39 (≈ 0.969 µM) | 0.05 (≈ 0.124 µM) | 0.05 (≈ 0.124 µM) | 0.05 (≈ 0.124 µM) | 0.05 (≈ 0.124 µM) | 0.05 (≈ 0.124 µM) | 0.05 (≈ 0.124 µM) | 0.05 (≈ 0.124 µM) | 0.05 (≈ 0.124 µM) | 0.16 (≈ 0.398 µM) | 0.78 (≈ 1.94 µM) | CN1CCN(c2c(F)cc3c(=O)c(C(=O)O)c4scc5n4c3c2N(C)C5)CC1 | 2.8 | 10.2 | 0.9
25 | 100 | 25 | 6.25 | 50 | 50 | 3.13 | 12.5 | 25 | 12.5 | > 10 | 100 | CN1CCN(c2c(F)cc3c(=O)c(C(=O)O)c4scc5n4c3c2N(Cc2ccccc2)C5)CC1.Cl |  |  | 
0.39 (≈ 1 µM) | 0.78 (≈ 2 µM) | 0.1 (≈ 0.257 µM) | 0.1 (≈ 0.257 µM) | 0.1 (≈ 0.257 µM) | 0.05 (≈ 0.128 µM) | 0.1 (≈ 0.257 µM) | 0.1 (≈ 0.257 µM) | 0.05 (≈ 0.128 µM) | 0.2 (≈ 0.514 µM) | 0.14 (≈ 0.36 µM) | 0.78 (≈ 2 µM) | CN1CCN(c2c(F)cc3c(=O)c(C(=O)O)c4scc5n4c3c2OC5)CC1 | 12.3 | 11.7 | 1.4
0.78 (≈ 1.87 µM) | 3.13 (≈ 7.52 µM) | 0.39 (≈ 0.936 µM) | 0.2 (≈ 0.48 µM) | 0.2 (≈ 0.48 µM) | 0.2 (≈ 0.48 µM) | 0.2 (≈ 0.48 µM) | 0.2 (≈ 0.48 µM) | 0.2 (≈ 0.48 µM) | 0.2 (≈ 0.48 µM) | 0.25 (≈ 0.6 µM) | 3.13 (≈ 7.52 µM) | CCN1Cc2csc3c(C(=O)O)c(=O)c4cc(F)c(N5CCN(C)CC5)c1c4n23 |  |  | 
3.13 | 1.56 | 0.78 | 0.39 | 12.5 | 0.78 | 0.39 | 0.39 | 0.78 | 0.78 | 0.45 | 6.25 | C=CCN1Cc2csc3c(C(=O)O)c(=O)c4cc(F)c(N5CCN(C)CC5)c1c4n23.Cl |  |  | 
50 | 100 | 12.5 | 6.25 | 25 | 12.5 | 6.25 | 12.5 | 12.5 | 12.5 | > 10 | 100 | CN1CCN(c2c(F)cc3c(=O)c(C(=O)O)c4scc5n4c3c2C(=O)C5)CC1.Cl |  |  | 
0.78 (≈ 1.82 µM) | 1.56 (≈ 3.64 µM) | 0.2 (≈ 0.467 µM) | 0.2 (≈ 0.467 µM) | 0.2 (≈ 0.467 µM) | 0.39 (≈ 0.91 µM) | 0.2 (≈ 0.467 µM) | 0.1 (≈ 0.233 µM) | 0.2 (≈ 0.467 µM) | 0.39 (≈ 0.91 µM) | 0.34 (≈ 0.793 µM) | 3.13 (≈ 7.3 µM) | CN1CCN(c2c(F)cc3c(=O)c(C(=O)O)c4scc5n4c3c2N(C2CC2)C5)CC1 |  |  | 
0.78 (≈ 1.92 µM) | 3.13 (≈ 7.72 µM) | 0.2 (≈ 0.493 µM) | 0.2 (≈ 0.493 µM) | 0.2 (≈ 0.493 µM) | 0.1 (≈ 0.247 µM) | 0.2 (≈ 0.493 µM) | 0.2 (≈ 0.493 µM) | 0.2 (≈ 0.493 µM) | 0.39 (≈ 0.962 µM) | 0.24 (≈ 0.592 µM) | 3.13 (≈ 7.72 µM) | CN1CCN(c2c(F)cc3c(=O)c(C(=O)O)c4scc5n4c3c2SC5)CC1 |  |  | 
25 | 100 | 3.13 | 1.56 | 3.13 | 3.13 | 0.78 | 3.13 | 3.13 | 1.56 | 1.76 | 100 | CN1CCN(c2c(F)cc3c(=O)c(C(=O)O)c4scc5n4c3c2N(c2ccccc2)C5)CC1.Cl |  |  | 

Structure (SMILES) | MIC (Enterococcus faecalis) [µg/mL] | MIC (Pseudomonas aeruginosa [2]) [µg/mL] | MIC (Escherichia coli [3]) [µg/mL] | MIC (Staphylococcus aureus [4]) [µg/mL] | MIC (Klebsiella pneumoniae) [µg/mL] | MIC (Salmonella typhimurium) [µg/mL] | MIC (Staphylococcus aureus [6]) [µg/mL] | MIC (Escherichia coli [7]) [µg/mL] | MIC (Escherichia coli [9]) [µg/mL] | MIC [10] [µg/mL] | IC50 (Escherichia coli [11]) [µg/mL] | MIC (Pseudomonas aeruginosa [12]) [µg/mL] | ED50 (Staphylococcus aureus [1]) [mg/kg] | ED50 (Pseudomonas aeruginosa [5]) [mg/kg] | ED50 (Escherichia coli [8]) [mg/kg]
CC1COc2c(N3CCN(C)CC3)c(F)cc3c(=O)c(C(=O)O)cn1c23 (centres undefined) [OFLOXACIN] | 1.56 (≈ 4.32 µM) | 1.56 (≈ 4.32 µM) | 0.1 (≈ 0.277 µM) | 0.39 (≈ 1.08 µM) | 0.1 (≈ 0.277 µM) | 0.05 (≈ 0.138 µM) | 0.39 (≈ 1.08 µM) | 0.1 (≈ 0.277 µM) |  | 0.78 (≈ 2.16 µM) |  | 1.56 (≈ 4.32 µM) |  |  | 
